Experimental findings from US20230026360A1, “DETECTION OF MOLECULAR INTERACTIONS” (Orionis Biosciences, Inc., priority 2019, published 2023) are described below.

Structures are written as SMILES. Entries after “also recorded” stand apart in the source; their conditions may differ.

Format in all cases: cell-based
One test concerns the target T1, CRBN-IKZF1 interaction (Homo sapiens, UniProt Q96SW2).
T1 construct: expressed in transfected cells; host or cells: HEK293T
Kind of test: MAPPIT inverse assay, CRBN gp130 fusion + IKZF1 receptor fusion. Particulars: inverse configuration; HEK293T cells; EPO; dose-response; IKZF1 isoform 7. The text has this: (§1) The traditional MAPPIT assay has been used to monitor protein-protein interactions. A bait protein (protein A) is expressed as a fusion protein in which it is genetically fused to an engineered intracellular receptor domain of the leptin receptor, which is itself fused to the extracellular domain of the erythropoietin (Epo) receptor. Binding of Epo ligand to the Epo receptor component results in activation of receptor-associated intracellular JAK2. However, activated JAK2 cannot activate the leptin receptor to trigger STAT3 binding and its phosphorylation because its tyrosine residues, normally phosphorylated by activated JAK2, have been mutated. […] Activation of STAT3 can be monitored by introduction of a STAT3-responsive reporter gene, including a luciferase-encoding gene or a gene encoding a fluorescent marker such as GFP or some other type of Fluorescent Protein (EGFP etc.). […]
(§2) Full size proteins were fused for each of the target/prey proteins tested, except in the case of IKZF1 where isoform 7 was used. […] Luciferase activity was measured 24 hours after test compound treatment using the Luciferase Assay System kit (PROMEGA, Madison, Wis.) with an Ensight plate reader (PERKIN ELMER LIFE SCIENCES, Waltham, Mass.). […]

A further test concerns the target T2, CRBN-CSNK1A1 interaction (Homo sapiens, UniProt Q96SW2).
T2 construct: expressed in transfected cells; host or cells: HEK293T
Kind of test: MAPPIT inverse assay with alternative CSNK1A1 receptor fusion (leptin receptor extracellular domain, pCLG-CSNK1A1). Particulars: inverse configuration, activated with leptin, 0, 0.1, 1, 10 μM, HEK293T. The method, then:
Cells were treated with leptin without or with the indicated dose of test compound at 24 hours after transfection. Luciferase activity was measured 24 hours after test compound treatment using the Luciferase Assay System kit (PROMEGA, Madison, Wis.) with an Ensight plate reader (PERKIN ELMER LIFE SCIENCES, Waltham, Mass.). […] Error bars represent standard deviations.

Test [1] deals with T3, CRBN-IKZF3 interaction (Homo sapiens, UniProt Q96SW2). Kind of test: MAPPIT inverse assay, CRBN gp130 fusion + IKZF3 receptor fusion. Particulars: inverse configuration; HEK293T cells; EPO; dose-response. Further details: expressed in transfected cells; host or cells: HEK293T.
From the text: as §1, §2
Target sequence in this assay (Q96SW2 whole entry, the tested form may be a part): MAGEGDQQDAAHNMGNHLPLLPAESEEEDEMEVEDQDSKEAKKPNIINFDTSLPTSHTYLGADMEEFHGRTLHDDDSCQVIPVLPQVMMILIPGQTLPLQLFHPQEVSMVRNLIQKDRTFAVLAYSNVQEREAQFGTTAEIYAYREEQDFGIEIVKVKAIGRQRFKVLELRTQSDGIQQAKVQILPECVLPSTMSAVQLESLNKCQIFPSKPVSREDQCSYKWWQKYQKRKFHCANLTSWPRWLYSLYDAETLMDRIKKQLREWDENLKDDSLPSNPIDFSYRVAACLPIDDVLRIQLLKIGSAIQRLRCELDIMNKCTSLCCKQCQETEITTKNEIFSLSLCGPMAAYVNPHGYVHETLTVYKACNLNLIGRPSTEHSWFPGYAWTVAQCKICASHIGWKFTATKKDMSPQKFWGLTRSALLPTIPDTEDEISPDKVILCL
Target sequence in this assay (Q9UKT9 whole entry partner, the tested form may be a part): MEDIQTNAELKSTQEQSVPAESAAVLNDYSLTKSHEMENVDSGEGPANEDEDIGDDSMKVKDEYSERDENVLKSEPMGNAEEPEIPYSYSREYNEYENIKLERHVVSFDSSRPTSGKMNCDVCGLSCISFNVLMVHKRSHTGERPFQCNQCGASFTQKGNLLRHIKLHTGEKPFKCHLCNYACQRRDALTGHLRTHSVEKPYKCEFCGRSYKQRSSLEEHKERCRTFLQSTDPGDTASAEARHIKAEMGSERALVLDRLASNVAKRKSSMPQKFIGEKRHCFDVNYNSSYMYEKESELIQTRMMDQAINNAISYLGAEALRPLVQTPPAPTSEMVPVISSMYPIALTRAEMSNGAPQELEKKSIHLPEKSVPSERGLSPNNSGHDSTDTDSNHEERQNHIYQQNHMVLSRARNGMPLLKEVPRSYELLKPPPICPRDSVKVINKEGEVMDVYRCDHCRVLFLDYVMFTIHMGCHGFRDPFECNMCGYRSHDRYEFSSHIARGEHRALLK

Test [2] deals with T4, CRBN-SALL4 interaction (Homo sapiens, UniProt Q96SW2). Kind of test: MAPPIT inverse assay, CRBN gp130 fusion + SALL4 receptor fusion. Further details: expressed in transfected cells; host or cells: HEK293T. Particulars: inverse configuration; HEK293T cells; EPO; dose-response.
From the text: as §1, §2
Target sequence in this assay (Q96SW2 whole entry, the tested form may be a part): as the sequence (Q96SW2 whole entry, the tested form may be a part) above
Target sequence in this assay (Q9UJQ4 whole entry partner, the tested form may be a part): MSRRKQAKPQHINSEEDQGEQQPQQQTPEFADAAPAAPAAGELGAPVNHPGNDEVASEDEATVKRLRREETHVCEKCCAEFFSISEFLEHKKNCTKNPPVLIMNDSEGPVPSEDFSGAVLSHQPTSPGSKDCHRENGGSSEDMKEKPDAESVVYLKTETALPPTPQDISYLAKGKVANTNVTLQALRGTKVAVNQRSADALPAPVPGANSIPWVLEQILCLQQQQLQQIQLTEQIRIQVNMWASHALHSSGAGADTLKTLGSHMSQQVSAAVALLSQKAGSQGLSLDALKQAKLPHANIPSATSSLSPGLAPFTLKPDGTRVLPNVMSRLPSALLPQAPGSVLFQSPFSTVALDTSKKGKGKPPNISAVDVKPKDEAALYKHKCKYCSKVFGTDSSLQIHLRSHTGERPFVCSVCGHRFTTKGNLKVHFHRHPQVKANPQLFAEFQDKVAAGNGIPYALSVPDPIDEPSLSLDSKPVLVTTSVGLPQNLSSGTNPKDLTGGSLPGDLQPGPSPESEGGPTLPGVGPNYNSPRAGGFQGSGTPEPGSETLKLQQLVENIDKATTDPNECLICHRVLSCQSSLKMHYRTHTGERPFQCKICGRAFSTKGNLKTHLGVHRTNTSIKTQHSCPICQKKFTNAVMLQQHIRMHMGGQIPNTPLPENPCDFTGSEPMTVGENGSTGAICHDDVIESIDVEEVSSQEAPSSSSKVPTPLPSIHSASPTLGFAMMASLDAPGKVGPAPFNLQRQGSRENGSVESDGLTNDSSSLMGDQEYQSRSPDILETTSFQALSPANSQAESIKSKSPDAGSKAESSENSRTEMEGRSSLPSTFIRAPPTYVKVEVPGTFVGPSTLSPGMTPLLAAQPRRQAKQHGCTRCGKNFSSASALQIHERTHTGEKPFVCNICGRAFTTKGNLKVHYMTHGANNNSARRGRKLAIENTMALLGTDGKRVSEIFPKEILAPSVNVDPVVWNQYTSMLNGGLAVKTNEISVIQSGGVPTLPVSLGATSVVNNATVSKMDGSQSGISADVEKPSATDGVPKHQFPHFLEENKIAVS

Test [3] has as its target T5, CRBN-ZFP91 interaction (Homo sapiens, UniProt Q96SW2). Kind of test: MAPPIT inverse assay, CRBN gp130 fusion + ZFP91 receptor fusion. Further details: expressed in transfected cells; host or cells: HEK293T. Particulars: inverse configuration; HEK293T cells; EPO; dose-response.
From the text: as §1, §2
Target sequence in this assay (Q96SW2 whole entry, the tested form may be a part): as the sequence (Q96SW2 whole entry, the tested form may be a part) above
Target sequence in this assay (Q96JP5 whole entry partner, the tested form may be a part): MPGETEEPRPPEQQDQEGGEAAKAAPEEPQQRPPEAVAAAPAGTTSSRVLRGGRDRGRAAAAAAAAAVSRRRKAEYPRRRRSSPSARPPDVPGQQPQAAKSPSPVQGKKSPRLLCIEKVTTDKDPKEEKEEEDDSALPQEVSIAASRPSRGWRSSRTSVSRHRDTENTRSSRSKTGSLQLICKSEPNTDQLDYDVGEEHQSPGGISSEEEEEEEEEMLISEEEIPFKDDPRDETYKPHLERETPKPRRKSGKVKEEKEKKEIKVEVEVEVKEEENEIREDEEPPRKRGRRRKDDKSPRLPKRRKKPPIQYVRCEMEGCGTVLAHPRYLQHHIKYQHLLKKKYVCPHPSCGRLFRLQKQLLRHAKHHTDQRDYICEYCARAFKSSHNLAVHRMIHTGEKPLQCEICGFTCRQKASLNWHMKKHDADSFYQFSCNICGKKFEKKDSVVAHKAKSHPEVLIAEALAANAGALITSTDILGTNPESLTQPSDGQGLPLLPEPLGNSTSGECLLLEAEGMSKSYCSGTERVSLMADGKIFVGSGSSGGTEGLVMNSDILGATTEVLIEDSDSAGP

Test [4] concerns the target CRBN-CSNK1A (CK1a) interaction (Homo sapiens, UniProt Q96SW2). Kind of test: MAPPIT inverse assay, CRBN gp130 fusion + CSNK1A1 receptor fusion. Further details: expressed in transfected cells; host or cells: HEK293T. Particulars: inverse configuration; HEK293T cells; EPO; dose-response.
From the text: as §1, §2

Test [5] deals with T3, CRBN-IKZF3 interaction. Kind of test: MAPPIT forward assay, CRBN receptor fusion + IKZF3 gp130 fusion. Further details: MAPPIT chimeric receptor (EPO receptor extracellular domain + signaling-deficient leptin receptor part); expressed in transfected cells; host or cells: HEK293T. Particulars: forward configuration; HEK293T cells; EPO; dose-response.
From the text: as §1, §2
Target sequence in this assay (Q96SW2 whole entry, the tested form may be a part): as the sequence (Q96SW2 whole entry, the tested form may be a part) above

In a further test the target is CRBN-IKZF2 interaction (Homo sapiens, UniProt Q96SW2). Kind of test: MAPPIT forward assay, CRBN receptor fusion + IKZF2 gp130 fusion. Particulars: forward configuration; HEK293T cells; EPO; dose-response. Further details: MAPPIT chimeric receptor (EPO receptor extracellular domain + signaling-deficient leptin receptor part); expressed in transfected cells; host or cells: HEK293T.
Sequence of CRBN-IKZF2 interaction (Q96SW2 whole entry, the tested form may be a part): as above
From the text: as §1, §2

Test [6] deals with T4, CRBN-SALL4 interaction. Kind of test: MAPPIT forward assay, CRBN receptor fusion + SALL4 gp130 fusion. Further details: MAPPIT chimeric receptor (EPO receptor extracellular domain + signaling-deficient leptin receptor part); expressed in transfected cells; host or cells: HEK293T. Particulars: forward configuration; HEK293T cells; EPO; dose-response.
From the text: as §1, §2
Target sequence in this assay (Q96SW2 whole entry, the tested form may be a part): as above

For test [7], the target named is T5, CRBN-ZFP91 interaction. Kind of test: MAPPIT forward assay, CRBN receptor fusion + ZFP91 gp130 fusion. Further details: MAPPIT chimeric receptor (EPO receptor extracellular domain + signaling-deficient leptin receptor part); expressed in transfected cells; host or cells: HEK293T. As to conditions: forward configuration; HEK293T cells; EPO; dose-response.
From the text: as §1, §2
Target sequence in this assay (Q96SW2 whole entry, the tested form may be a part): as above

Sequence of CRBN-CSNK1A (CK1a) interaction (Q96SW2 whole entry, the tested form may be a part): as above
Sequence of CRBN-CSNK1A (CK1a) interaction (P48729 whole entry partner, the tested form may be a part): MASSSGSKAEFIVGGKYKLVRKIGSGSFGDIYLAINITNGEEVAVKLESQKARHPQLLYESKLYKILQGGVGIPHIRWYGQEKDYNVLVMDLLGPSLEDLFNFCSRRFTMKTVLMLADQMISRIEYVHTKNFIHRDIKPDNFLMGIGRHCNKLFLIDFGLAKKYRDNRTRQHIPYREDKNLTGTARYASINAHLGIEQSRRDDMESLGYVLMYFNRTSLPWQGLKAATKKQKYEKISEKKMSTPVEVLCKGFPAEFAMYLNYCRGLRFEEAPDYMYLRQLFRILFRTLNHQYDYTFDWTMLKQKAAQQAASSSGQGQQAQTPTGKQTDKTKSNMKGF
T1 sequence (Q96SW2 whole entry): as the sequence (Q96SW2 whole entry, the tested form may be a part) above
T1 sequence (Q13422 1-477 isoform Q13422-7 partner): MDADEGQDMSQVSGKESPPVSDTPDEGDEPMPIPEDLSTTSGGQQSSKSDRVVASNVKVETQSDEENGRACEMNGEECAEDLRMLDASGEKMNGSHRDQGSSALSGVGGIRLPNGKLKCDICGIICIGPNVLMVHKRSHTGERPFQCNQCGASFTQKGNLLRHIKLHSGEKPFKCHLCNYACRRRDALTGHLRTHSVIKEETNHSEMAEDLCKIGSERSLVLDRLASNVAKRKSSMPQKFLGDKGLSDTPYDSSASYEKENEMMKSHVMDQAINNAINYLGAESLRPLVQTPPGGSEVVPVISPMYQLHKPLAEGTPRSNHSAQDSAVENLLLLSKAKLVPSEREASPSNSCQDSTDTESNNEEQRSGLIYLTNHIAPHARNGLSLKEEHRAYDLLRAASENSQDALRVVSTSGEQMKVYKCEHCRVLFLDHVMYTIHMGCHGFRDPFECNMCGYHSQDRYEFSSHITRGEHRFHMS
T2 sequence (Q96SW2 whole entry): as the sequence (Q96SW2 whole entry, the tested form may be a part) above
T2 sequence (P48729 whole entry partner): as the sequence (P48729 whole entry partner, the tested form may be a part) above

`O=C1CC[C@H](N2Cc3c(OCc4ccc(CN5CCOCC5)cc4)cccc3C2=O)C(=O)N1` [CC-220]: the “compound-induced binding of IKZF1 to CRBN (luciferase reporter signal)” value on CRBN-IKZF1 interaction is “can be detected with both the forward and the inverse assay configuration”. Moreover, the “compound-induced CRBN-CSNK1A1 interaction (CSNK1A1 neosubstrate recruitment)” value on CRBN-CSNK1A1 interaction is recorded as “CSNK1A1 neosubstrate recruitment can be detected”. Moreover, the entries for the “compound-induced binding of IKZF3 to CRBN (luciferase reporter signal)” value on CRBN-IKZF3 interaction [1] and on CRBN-IKZF3 interaction [5] were “an interaction signal response could be detected” and “only in the inverse assay setup an interaction signal response could be detected”, respectively. Besides, the “compound-induced binding of SALL4 to CRBN (luciferase reporter signal)” value was “an interaction signal response could be detected” at CRBN-SALL4 interaction [2] and “only in the inverse assay setup an interaction signal response could be detected” at CRBN-SALL4 interaction [6]. Also, the “compound-induced binding of ZFP91 to CRBN (luciferase reporter signal)” value on CRBN-ZFP91 interaction [3] was “an interaction signal response could be detected”; at CRBN-ZFP91 interaction [7], “only in the inverse assay setup an interaction signal response could be detected”. In [4], the “compound-induced binding of CSNK1A (CK1a) to CRBN (luciferase reporter signal)” value is given as “an interaction signal response could be detected; also recorded: specific signal in the inverse”. Also, on CRBN-IKZF2 interaction, the “compound-induced binding of IKZF2 to CRBN (luciferase reporter signal)” value was “only in the inverse assay setup an interaction signal response could be detected”.
